Source: patent US12501902B2, “Compositions and methods relating to insecticides” (priority 2019, dated 2025)

Test system: Aedes aegypti mosquitoes
Assay type: in vivo
Details: for Synergism of NP by Cha Plu constituent: Table 2, 2 ug/female; for Synergism of the insecticide by Cha Plu (SR or words): Cha Plu at 4 μg/female; for LD50: Table 1, topical 0.2 μL, mortality at 24 hr, Cha Plu 4 μg/female where combined
Description: Aedes aegypti mosquitoes of the insecticide susceptible Orlando strain and the pyrethroid-resistant Puerto Rico strain were reared using standard protocols and provided by the United States Department of Agriculture—Center of Medical, Agricultural, and Veterinary Entomology (Gainesville, FL). Mosquitoes were aspirated from colony cages raised from pupae and anesthetized on ice. […] Ten mosquitoes were used per concentration and at least three different biological cohorts were used in the analysis. Knockdown (defined as inability to fly or maintain posture) was recorded at 1 hr or other time points post application (depending on the experiment), whereas mortality (defined as no movement—ataxia) was recorded at 24 hr. […] SAS 9.4 was used to calculate the LD50 values using a PROC PROBIT model with Abbott's correction to account for any control mortality.

Compound | Synergism of NP by Cha Plu constituent | Synergism of NP (PBO applied at 2 μg/female) [fold] | Synergism of the insecticide by Cha Plu (SR or words) | LD50 [ng/mg]
C[C@@H]1O[C@@H](OC[C@H]2O[C@@H](Oc3c(-c4ccc(O)c(O)c4)oc4cc(O)cc(O)c4c3=O)[C@H](O)[C@@H](O)[C@@H]2O)[C@H](O)[C@H](O)[C@H]1O [rutin] | more than 3 fold |  |  | 
CCCCOCCOCCOCc1cc2c(cc1CCC)OCO2 [PBO] |  | 3.8 |  | 
CCOCn1c(-c2ccc(Cl)cc2)c(C#N)c(Br)c1C(F)(F)F [Chlorfenapyr] |  |  | antagonism | 9.9
CNC(=N[N+](=O)[O-])NCc1cnc(Cl)s1 [Clothianidin, 1-(2-Chloro-1,3-thiazol-5-ylmethyl)-3-methyl-2-nitroguanidine] |  |  | strong synergist | 4.5
O=c1cc(-c2ccc(O)cc2)oc2c([C@@H]3O[C@H](CO)[C@@H](O)[C@H](O)[C@H]3O)c(O)cc(O)c12 [Vitexin] | inactive |  |  | 
N#Cc1nn(-c2c(Cl)cc(C(F)(F)F)cc2Cl)c(N)c1[S+]([O-])C(F)(F)F (stereo not drawn) [Fipronil] |  |  | 1.02 | 0.1
